Experimental data taken from US12024507B2, “Compounds as GLP-1R agonists” (Terns Pharmaceuticals, Inc., priority 2021, dated 2024).

Experiments:
[1] = Metabolic stability in rat hepatocytes; format: in vitro ADME; conditions: cryopreserved hepatocytes, 1×10^6 cells/mL; for CLint scaled at 1 μM: intrinsic clearance; for half-life at 1 μM: read-out: Rat T1/2
Experimental: (§1) Test compounds were incubated in rat and human hepatocytes and stability was assessed from the substrate […] approach. Test compounds were dissolved in dimethyl sulfoxide (DMSO) to create a 10 mM Stock, and then further diluted to create a 1000×Working Stock of 1 mM with DMSO in 96-well plates for test compounds and the positive control (midazolam). Vials containing cryopreserved hepatocytes were removed from the liquid nitrogen tank and immediately immersed in a 37° C. water bath. The vials were shaken gently until the contents had thawed and were then immediately emptied into 48 mL of pre-warmed HT Medium in a 50 mL conical tube. Cells remaining in the vial were resuspended with 1.0 mL of pre-warmed HT Medium and added to the conical tube. The tube was capped and then gently inverted several times to resuspend the hepatocytes. The cell suspension was centrifuged at 50×g at room temperature for 5 minutes and the supernatant discarded. The cell pellet was loosened by gently swirling the centrifuge tube and was re-suspended in 4 mL of warm Dulbecco's Modified Eagle medium (DMEM). Cell density was determined by a cell counter by Nexcelom, and DMEM medium was added to obtain a target density of 1×10^6 cells/mL. The assay was carried out in 96-well microtiter plates. Test Compounds were incubated at 1 μM with 1×10^6 cells/mL hepatocytes in DMEM for 0, 30, 60, 120 and 240 minutes. The incubation was carried out with gentle shaking at 37° C. under a humid atmosphere of 95% air/5% CO2. The volume of the incubation mixture was 37 μL with a final 0.1% DMSO. At each of the time points, the incubation was stopped by adding 150 μL quenching solution (100% acetonitrile, 0.1% formic acid containing bucetin as an internal standard for positive ESI mode). Subsequently, the mixtures were vortexed for 20 min and centrifuged at 4,000 RPM at 10° C. The supernatant (80 μL) was transferred to a clean 96-well plate and analyzed by LC-MS/MS. Midazolam at 1 μM with a final 0.1% DMSO was included as a positive control to verify assay performance. The percent parent remaining, intrinsic and predicted hepatic clearance and t1/2 were calculated. All samples were analyzed by LC-MS/MS using an AB Sciex API 4000 instrument, coupled to a Shimadzu LC-20AD LC Pump system. Separation was achieved using a Waters Atlantis T3 dC18 reverse phase HPLC column (20 mm×2.1 mm) at a flow rate of 0.5 mL/min. The mobile phase consisted of 0.1% formic acid in water (solvent A) and 0.1% formic acid in 100% acetonitrile (solvent B). Elution conditions are detailed below.
(§2) The ion optics of each test compound were optimized for their declustering potential (DP), […] (CE), collision-cell exit potential (CXP) and used in a selected ion monitoring experiment in the positive ion mode. The peak area ratio of each test compound to internal standard was then evaluated for stability. The extent of metabolism was calculated based on the disappearance of the test compound, compared to its initial concentration. The initial rates of clearance of the test compound were calculated using the linear regression plot of semi-log % remaining of the compound versus time.
(§3) The predicted hepatic clearance (CLhep) was calculated using the well stirred method with the following formula with CLint(in vivo) normalized based on liver weight: CLint(in vivo)=CLint×Hepatocellularity×liver weight CLhep predicted=(CLint(in vivo)×Qliver)/(CLint(in vivo)+Qliver) Where Qliver ((ml/min/kg) is Liver Blood Flow
(§4) The relevant physiological parameters of liver weight, blood flow, and hepatocellularity for various species are listed below:
(§5) Results are presented in the Table B3 below for the intrinsic clearance (mL/min/kg) and half-life (t1/2).

human GLP-1R receptor = target: T1, human GLP-1R receptor (Homo sapiens, UniProt P43220); assay: GLP-1R cell assay (cAMP TR-FRET, low expression CHO-K1_hGLP-1Rlow_clone10 cell line); format: cell-based; conditions: CHO-K1_hGLP-1Rlow_clone10 cells, relative to control GLP-1 peptide agonist, read-out: GLP1 EC50
T1 construct: expressed in transfected cells
T1 sequence (P43220 24-463): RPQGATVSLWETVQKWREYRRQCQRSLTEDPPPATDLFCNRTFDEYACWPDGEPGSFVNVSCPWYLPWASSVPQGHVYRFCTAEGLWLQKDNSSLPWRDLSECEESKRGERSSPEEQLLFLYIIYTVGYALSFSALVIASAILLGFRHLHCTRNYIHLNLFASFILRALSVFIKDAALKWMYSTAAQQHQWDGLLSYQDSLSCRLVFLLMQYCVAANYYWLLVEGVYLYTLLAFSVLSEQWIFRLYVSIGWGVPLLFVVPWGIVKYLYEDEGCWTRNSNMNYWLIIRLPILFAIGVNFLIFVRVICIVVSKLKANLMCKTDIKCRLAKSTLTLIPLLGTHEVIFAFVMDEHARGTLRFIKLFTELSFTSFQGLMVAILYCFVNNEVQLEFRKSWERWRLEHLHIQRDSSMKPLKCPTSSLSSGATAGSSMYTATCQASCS
Experimental: Stable cell lines expressing high and low GLP-1R surface expression were generated in CHO-K1 cells transfected (Fugene 6) with a puromycin selectable DNA plasmid encoding human GLP-1R receptor (accession number: NM_002062.5) under control of an EF1A promoter. Transfected cells were seeded into 24-well plates (9,000 cells/well) containing complete medium and incubated in a humidified incubator at 37° C. with 5% carbon dioxide. After overnight incubation, medium was replaced with complete medium supplemented with puromycin (6 μg/mL) and refreshed every 2-3 days to select for stably transfected cells. Individual pools of selected cells were expanded prior to analysis for responsiveness to GLP-1 control peptide using a TR-FRET assay to detect cAMP (LANCE Ultra cAMP Assay, Perkin Elmer). Briefly, cells were collected in Versene solution, plated in 384-well plates (1,000 cells/well) and combined with serially diluted GLP-1R control peptide (10 nL) using an acoustic dispenser (ECHO). Plates were incubated for 30 minutes at 25° C. prior to the addition of EU-cAMP tracer (5 μL) and Ulight-anti-cAMP (5 μL) reagents to each well, followed by 15 minutes incubation at 25° C. TR-FRET signal was detected using an EnVision Multimode Plate Reader (excitation=320 nm; emission=615 and 655 nm). Dose-response curves were used to generate EC50 values as a measure of responsiveness to the GLP-1R control peptide. Selected cell lines were monitored for responsiveness over multiple passages to ensure stability. […] Briefly, GLP-1R expression was analyzed by flow cytometry using a fluorescein-labeled Exendin-4 peptide fluorescent probe (FLEX). Cells were harvested in Versene solution and washed 3-times with PBS+0.5% BSA before incubation with FLEX reagent (10 μM) for 2 hours at room temperature. After incubation, cells were washed 3-times in PBS+0.5% BSA before final resuspension in PBS prior to analysis by flow cytometry to measure FLEX mean fluorescence intensity (MFI) as a measure of GLP-1R expression on the cell surface.
For compound testing in the CHO-K1_hGLP-1Rlow_clone10 cell line, cells were seeded in 384-well plates (1,000 cells/well). Test compounds were serially diluted in DMSO (10-point, 3-fold dilution), added to wells using an ECHO dispenser (10 nL/well) and plates were centrifuged for 1 min and agitated for 2 min at room temperature prior to 30-minute incubation at 25° C. After incubation, Eu-cAMP (5 μL) and Ulight-anti-cAMP (5 μL) reagents were added to each well, followed by centrifugation for 1 minute, agitation for 2 minutes at room temperature, and final incubation of the plates at 25° C. for 15 minutes. Plates were read using an EnVision microplate reader (excitation=320 nm; emission=615 and 655 nm). Dose-response curves were generated from duplicate wells based on percent activation calculated relative to a control GLP-1 peptide agonist that was run in parallel. EC50 values were determined by fitting percent activation as a function of compound concentration using the Hill equation (XLfit).
The compounds tested were compound samples prepared according to the General Procedures described in the Examples section.

[2] = Metabolic stability in human hepatocytes; format: in vitro ADME; conditions: cryopreserved hepatocytes, 1×10^6 cells/mL; for CLint scaled at 1 μM: intrinsic clearance; for half-life at 1 μM: read-out: Human T1/2
Experimental: as §1, §2, §3, §4, §5

Row | SMILES | CLint scaled at 1 μM [1] | half-life at 1 μM [1] | EC50 (human GLP-1R receptor) | CLint scaled at 1 μM [2] | half-life at 1 μM [2]
1 | N#Cc1ccc(COc2cccc(C3CCN(Cc4nc5ccc(-c6nnn[nH]6)cc5n4C[C@@H]4CCO4)CC3)n2)c(F)c1 [Compound 8] | 46.5 ± 2.11 mL/min/kg | 1.19 ± 0.054 h | 15 nM | 7.99 ± 0.99 mL/min/kg | 5.02 ± 0.623 h
2 | N#Cc1ccc(COc2cccc(C3CCN(Cc4nc5ccc(-c6nc(=O)[nH]o6)cc5n4Cc4cncs4)CC3)n2)c(F)c1 [Compound 13, 3-fluoro-4-(((6-(1-((6-(3-oxo-2,3-dihydro-1,2,4-oxadiazol-5-yl)-1-(thiazol-5-ylmethyl)-1H-benzo[d]imidazol-2-yl)methyl)piperidin-4-yl)pyridin-2-yl)oxy)methyl)benzonitrile] | 111 ± 2.29 mL/min/kg | 0.501 ± 0.0103 h | 25.2 nM | 35.8 ± 1.06 mL/min/kg | 1.12 ± 0.0332 h
